Assay: xn = mol fraction of the nth substance listed
Conditions: 100 kPa

CCCn1cc[n+](C)c1C.O=S(=O)([N-]S(=O)(=O)C(F)(F)F)C(F)(F)F + O=C1CCCO1
electrical conductivity [S/m]
Conditions	293.15 K	298.15 K	303.15 K	308.15 K	313.15 K	318.15 K	323.15 K
x2 = 0	0.196	–	0.338	0.417	0.503	0.59	0.687
x2 = 0.1289	0.24	0.312	–	0.479	0.578	0.678	0.788
x2 = 0.2006	–	0.351	0.444	–	0.65	0.759	–
x2 = 0.3027	0.343	0.428	0.537	0.646	0.779	0.907	1.02
x2 = 0.3969	0.451	0.539	0.657	0.789	0.935	1.09	1.23
x2 = 0.4952	0.593	0.708	0.844	0.995	1.16	–	1.46
x2 = 0.5969	0.797	0.927	1.07	1.21	1.38	1.54	1.7
x2 = 0.6992	–	1.13	1.27	–	–	1.74	1.92
x2 = 0.8002	–	1.31	1.45	1.59	1.73	–	2.07
x2 = 0.8508	1.25	1.38	–	1.63	–	1.91	2.06
x2 = 0.8999	–	1.32	1.44	1.55	–	1.81	1.94
x2 = 0.9495	0.875	0.954	1.03	–	1.2	1.29	1.39

Reference: a compilation of properties of binary mixtures (doi:10.2298/jsc190413047v)
